The values below come from patent US7713939B2, “Illudin analogs useful as antitumor agents” (priority 1996, dated 2010).

Series [1] relates to MV522 (human lung carcinoma cell line). In words: 48 hour continuous exposure, trypan blue exclusion. Particulars: 48 hour exposure. It counts as cell-based. As for the experimental part: (§1) To assess cytotoxic effects, various concentrations of illudins were added to cultures of MV522 (human lung carcinoma cell line) and 8392 (B-cell leukemia/lymphoma) cells for 48 hours, then cell growth/viability was determined by trypan blue exclusion. As an alternative to 48 hour continuous exposure studies, cells were plated in liquid culture in 96 well plates, exposed to various concentrations of illudins for 2 hours, pulsed with [^3H]-thymidine for one to two hours and harvested onto glass filters. The filter papers were added to vials containing scintillation fluid and residual radioactivity determined in a beta (scintillation) counter.

The subject of series [2] is 8392 (B-cell leukemia/lymphoma) cells. In words: 2 hour exposure, [3H]-thymidine incorporation. It counts as cell-based. As for the experimental part:
as §1
On the technique in general: Uptake of a labelled nucleoside into DNA is a usual measure of proliferation.

Series [3] deals with solid tumor systems. Particulars: cited from earlier work.
The subject of series [4] is Dunning leukemia. Particulars: rats with Dunning leukemia; cited from earlier work.
Series [5] concerns MV522 lung carcinoma line. Particulars: for efficacy in MV522 xenograft (in words): summary of the in vivo table. The text has this: Several analogs were chosen for in vivo studies. […] Drug therapy was started 10 days after inoculation on a daily basis via IP route for 5 consecutive days. The animals were monitored for 3 weeks after start of therapy.
BALB/c nu/nu 4-week old female mice weighing 18-22 g were obtained from Simonsen, Inc. (Gilroy, Calif.) and maintained in the athymic mouse colony of the University of California (San Diego, Calif.) under pathogen free conditions using HEPA filter hoods. Animals were provided with sterilized food and water ad libitum in groups of 5 in plastic cages vented with polyester fiber filter covers. Clean, sterilized gowns, glove, face masks, and shoe and hood covers were worn by all personnel handling the animals. All studies were conducted in accordance with guidelines of the NIH “Guide for Care and Use of Animals” and approved by the University Institutional Animal Care and Use Committee (Protocol 3-006-2)
The MV522 lung carcinoma line used for xenograft studies was derived as described by Kelner et al. (Anticancer Res., 15: 867-872; 873-878 (1995)) and maintained in antibiotic-free RPMI 1640 (Mediatech, Herndon, Va.) supplemented with 10% fetal bovine serum and 2 mM glutamine in 37° C. humidified carbon dioxide incubator.
Each animal was earmarked and followed individually throughout the experiments. Mice received s.c. injections of the parental cell line MV522 using 10 million cells/inoculation over the shoulder. Ten days after s.c. implantation of the MV522 cells, when s.c. tumors were approximately 3×3 mm in size, animals received the desired drug and dosage. The effect of the drug on life span was calculated from median survival.
Although MV522 cells kill mice by metastases, primary s.c. tumor growth over the shoulder was monitored starting on the first day of treatment and at weekly intervals thereafter. Tumor size was measured in two perpendicular diameters. Tumor weights were estimated according to the formula w=(width)^2×length/2). Relative weights (RW) were calculated to standardized variability in tumor size among test groups at initiation of treatment using the formula RW=Wt/wi, where Wi is the tumor weight for a given animal at beginning of drug treatment and Wt is tumor weight at a subsequent time. Animals were necropsied, and organs were examined for evidence of metastases.
Comparison of survival curves between groups of animals was by the method of Kaplan and Meir. For comparison of relative tumor weights between multiple groups of animals, ordinary ANOVA followed by Turkey-Kramer multiple Comparison post ANOVA analysis was preformed (Kelner et al. (Aniticancer Res., 15: 867-872; 873-878 (1995)). Probability values (p) less than 0.05 were considered statistically significant.

Series [6] has as its system MV522 (human lung carcinoma cell line). The series is described as follows: 2 hour exposure, [3H]-thymidine incorporation. It counts as cell-based. As for the experimental part: as §1
Series [7] has as its system 8392 (B-cell leukemia/lymphoma) cells. In words: 48 hour continuous exposure, trypan blue exclusion. It counts as cell-based. Particulars: 48 hour exposure. As for the experimental part:
as §1

Broadly, the IC50 is the concentration needed to halve the response being measured. High values mean lower potency, low ones higher potency. For `CC1=C(COCCO)C2=C(C)C3(CC3)C(C)(O)C(=O)C2=C1` (stereo not shown) [Compound 22], the IC50 in series [1] is 0.68 ± 0.18 µM; in series [2] it was 31.7 ± 1.4 µM.
As for `CC1=C2C(=CC(C)(C)[C@@H]2O)C(=O)[C@](C)(O)C12CC2` [Illudin M], the therapeutic index entry in series [3] is reported as “low”. The life span result in series [4] was “significantly increased”.
Consider `CC1=C(CSCC(O)CO)C2=C(C)C3(CC3)C(C)(O)C(=O)C2=C1` (stereo not shown) [Compound 32], for which the “efficacy in MV522 xenograft (in words)” value in series [5] is “effective”. Also, the half-maximal inhibitory concentration (IC50) in series [6] is 0.595 ± 0.185 µM; in series [2] it was greater than 50 µM.
In series [2], `COC(=O)CSCC1=C(C)C=C2C(=O)C(C)(O)C3(CC3)C(C)=C21` (stereo not shown) [Compound 25] had a 50% inhibitory concentration (IC50) greater than 25 µM.
In the case of `CC1=C(CCC=O)C2=C(C)C3(CC3)C(C)(O)C(=O)C2=C1` (stereo not shown) [Compound 10], the half-maximal inhibitory concentration (IC50) in series [7] amounted to 14.5 ± 1.65 µM; in series [2] it was 29.4 ± 1.6 µM.
In the case of `CC1=C(CCCO)C2=C(C)C3(CC3)C(C)(O)C(=O)C2=C1` (stereo not shown) [Compound 9], the IC50 in series [7] was found to be 15.1 ± 2.2 µM; in series [2], 47.1 ± 11 µM.
The molecule `CC1=C(CC2CC(C=O)CC(C=O)C2O)C2=C(C)C3(CC3)C(C)(O)C(=O)C2=C1` (mixture of isomers) [Compound 13] returned an IC50 in series [6] of 5.12 ± 0.65 µM.
In the case of `CC1=C2C=CC=C2C(=O)C2(OCCO2)C12CC2` [Compound 33], the “efficacy in MV522 xenograft (in words)” value in series [5] is “effective”. Moreover, the IC50 is 4.6 ± 0.2 µM in series [1], greater than 4 µM in series [6] and 29.9 ± 3.3 µM in series [2].
On to `COC(C)(C)OCC1=C(C)C=C2C(=O)C(C)(O)C3(CC3)C(C)=C21` (stereo not shown) [Compound 21], for which, in series [5], the “efficacy in MV522 xenograft (in words)” value was “more efficacious than HMAF”. Further, the values for the half-maximal inhibitory concentration (IC50) in series [1] and in series [2] were 0.93 ± 0.25 µM and 34.3 ± 9.4 µM, respectively.
Consider `CC(=O)OCOCC1=C(C)C=C2C(=O)C(C)(O)C3(CC3)C(C)=C21` (stereo not shown) [Compound 8], for which the IC50 was 0.63 ± 0.08 µM in series [1], 15.1 ± 2.2 µM in series [7] and 0.87 ± 0.09 µM in series [6].
For the molecule `CC1=C(CSCc2ccccc2)C2=C(C)C3(CC3)C(C)(O)C(=O)C2=C1` (stereo not shown) [Compound 24], in series [2], the IC50 is 12.8 ± 2.14 µM.
For the molecule `CC1=C(CSc2ccc(O)cc2)C2=C(C)C3(CC3)C(C)(O)C(=O)C2=C1` (stereo not shown) [Compound 23], the IC50 turned out to be 2.75 ± 0.51 µM in series [1], 2.92 ± 1.14 µM in series [6] and 138 ± 13 µM in series [2].
Consider `CC1=C(C=O)C2=C(C)C3(CC3)C(C)(O)C(=O)C2=C1` (stereo not shown) [Compound 11], for which the results for the concentration for half-maximal inhibition (IC50) in series [7], in series [6] and in series [2] were 40.4 ± 6.7 µM, 4.9 ± 0.9 µM and greater than 100 µM, respectively.
Consider `CC1=C2C(=CC3(C)COCOC23)C(=O)C(C)(O)C12CC2` (stereo not shown) [Compound 14], for which the IC50 came out at 0.115 ± 0.03 µM in series [6] and 9.65 ± 1.2 µM in series [2].
As for `CCOCC1=C(C)C=C2C(=O)C(C)(O)C3(CC3)C(C)=C21` (stereo not shown) [Compound 16], the “efficacy in MV522 xenograft (in words)” value in series [5] was “effective”.
As for `CO[C@@]12[C@H](COC(N)=O)C3=C(C(=O)C(C)=C(N)C3=O)N1C[C@@H]1N[C@@H]12` [Mitomycin C, reference compound], the “day before which all animals succumbed” value in series [5] (mouse, in vivo) is less than 31 days.
